This passage reports IC50 results from US11236059B2, “Targeted cytotoxic ratjadone derivatives and conjugates thereof” (HELMHOLTZ-ZENTRUM FUER INFEKTIONSFORSCHUNG GMBH, priority 2017, dated 2022).

pIC50: −log10 of the molar value. Read-outs that look alike come from different tables or passages of the source.

Experiment [1] relates to A549 (DSMZ ACC 107) cells. The experiment is described as follows: cells. In kind it is cell-based. Particulars: Homo sapiens, A549, 120 h. The procedure: (§1) 60 μL of serial dilutions of the test compound were given to 120 μL of suspended cells (50.000/mL) in wells of 96-well plates. After 5 days of incubation growth inhibition (IC50) was determined using an MTT assay.^[64]

Experiment [2] has as its system MCF-7 (DSMZ ACC 115) cells. The experiment is described as follows: cells. The following applies: Homo sapiens, MCF7, 120 h. In kind it is cell-based. The procedure:
as §1

Experiment [3] deals with SKOV-3 (DSMZ ATCC HTB 77) cells. In words: cells. In kind it is cell-based. Particulars: Homo sapiens, SK-OV-3, 120 h. The procedure:
as §1

In experiment [4] the test system is KB 3.1 (DSMZ ACC 158) cells. The experiment is described as follows: cells. Particulars: Homo sapiens, KB 3-1, 120 h.
The next experiment deals with T1, CRM1 (Homo sapiens, UniProt O14980).
T1 construct: HeLa cells stably expressing a fluorescent translocation biosensor (HeLaRevBio); endogenous in cells; host or cells: HeLa (HeLaRevBio in A7; HeLa in A8)
T1 sequence (O14980 whole entry): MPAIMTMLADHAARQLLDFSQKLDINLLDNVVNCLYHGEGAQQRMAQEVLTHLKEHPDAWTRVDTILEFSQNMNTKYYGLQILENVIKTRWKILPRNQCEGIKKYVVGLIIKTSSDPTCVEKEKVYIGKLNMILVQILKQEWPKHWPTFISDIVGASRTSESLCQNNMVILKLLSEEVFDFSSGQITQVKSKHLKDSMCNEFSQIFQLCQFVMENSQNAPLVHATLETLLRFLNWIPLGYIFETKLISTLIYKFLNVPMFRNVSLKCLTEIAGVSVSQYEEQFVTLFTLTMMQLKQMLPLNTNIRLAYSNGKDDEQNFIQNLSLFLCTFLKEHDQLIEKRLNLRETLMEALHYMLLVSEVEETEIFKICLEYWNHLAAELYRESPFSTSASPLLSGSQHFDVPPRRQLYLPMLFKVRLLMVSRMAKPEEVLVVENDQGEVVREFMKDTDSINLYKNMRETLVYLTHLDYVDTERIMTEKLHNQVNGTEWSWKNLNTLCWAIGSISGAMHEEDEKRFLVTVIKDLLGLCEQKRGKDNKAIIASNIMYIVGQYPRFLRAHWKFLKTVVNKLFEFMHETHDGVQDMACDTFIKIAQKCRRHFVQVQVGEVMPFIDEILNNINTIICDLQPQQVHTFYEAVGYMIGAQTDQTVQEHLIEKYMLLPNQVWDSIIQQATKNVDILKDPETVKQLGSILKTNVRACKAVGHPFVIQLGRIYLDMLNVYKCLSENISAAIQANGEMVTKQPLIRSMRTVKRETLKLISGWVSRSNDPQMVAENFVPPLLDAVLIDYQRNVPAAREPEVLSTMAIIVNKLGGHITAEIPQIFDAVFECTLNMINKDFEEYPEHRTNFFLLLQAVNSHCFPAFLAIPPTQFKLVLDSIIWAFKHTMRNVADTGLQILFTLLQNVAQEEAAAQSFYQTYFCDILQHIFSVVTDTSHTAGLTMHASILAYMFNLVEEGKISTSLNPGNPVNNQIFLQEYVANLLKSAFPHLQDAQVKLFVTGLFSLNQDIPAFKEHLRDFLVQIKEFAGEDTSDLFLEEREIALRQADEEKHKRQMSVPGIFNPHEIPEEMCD
The experiment is described as follows: Monitoring export inhibitory activity (translocation biosensor, HeLaRevBio cells). The following applies: for IC50: HeLa cells stably expressing translocation biosensor, 1h of incubation, read-out: IC50 [nM] CRM1 (nuclear export inhibition). In kind it is cell-based. The procedure:
Export inhibitory ability of compounds was evaluated with the translocation biosensor system. This cellular assay depends on a recombinantly expressed fusion protein consisting of a nuclear localization signal (SV40-NLS), glutathione S-transferase (GST), green fluorescent protein (GFP) and a nuclear export signal (HIV1-RevNES). Due to the two transport signals (NLS/NES), the biosensor is permanently shuttling between nucleus and cytoplasm but resides prominently in the cytoplasm due to a comparatively stronger NES. Export inhibiting compound induce a nuclear accumulation of the GFP-signal^[65,66] Cell lines were maintained as recommended by the American Type Culture Collection in DMEM containing 5% glutamine (Thermo Fisher Scientific, Waltham, USA) supplemented with 10% FBS (Thermo Fisher Scientific, Waltham, USA). For quantifying the nuclear export inhibitory effect, HeLa cells stably expressing a fluorescent translocation biosensor (HeLaRevBio)^[67] were seeded into black 96 well μclear plates (Greiner, Germany). They next day compounds were added covering an appropriate concentration range. After 1h of incubation, cells were fixed in 4% PFA for 10 min and permeabilized with 0.1% Triton X 100 in PBS for 5 min. After washing with PBS nuclei were labeled with Hoechst H33342 (30 min 10 μg/ml). The intracellular distribution of the biosensor-dependent GFP signal was quantitatively evaluated with the high content imaging system ImageXpress MicroXLS (Molecular Devices, Sunnyvale, USA). By using the translocation enhanced application module (Molecular Devices, Sunnyvale, USA) the GFP-intensity was quantified in the cytoplasm and nuclear region. As final readout the difference of Mean Inner and Mean Outer Intensity was calculated. IC50s of nuclear export inhibition were calculated using Sigma Plot with four parameter logistics curve regression (Systat Software GmbH, Erkrath, Germany). […] The following day compounds were added at 125 nM final concentration.

[5] abbreviates: read-out: IC50 [nM] A-549, growth inhibition, 5 days of incubation, MTT assay.
The mark [6] stands for this setting: read-out: IC50 [nM] MCF-7, growth inhibition, 5 days of incubation, MTT assay.
Where [7] appears, read: read-out: IC50 [nM] SK-OV-3, growth inhibition, 5 days of incubation, MTT assay.
The mark [8] stands for this setting: read-out: IC50 [nM] KB-3.1, growth inhibition, 5 days of incubation, MTT assay.

With `C#CCCC(=O)NCCSSCCC(=O)N[C@H](/C=C/C=C(\C)C[C@@H](C)/C=C(C)\C=C\[C@H]1CC=CC(=O)O1)[C@@H]1C[C@@H](O)[C@H](C)[C@H](/C=C/C)O1` [N-(2-((3-(((1R,2E,4E,7R,8Z,10E)-1-((2S,4R,5S,6S)-4-hydroxy-5-methyl-6-((E)-prop-1-en-1-yl)tetrahydro-2H-pyran-2-yl)-5,7,9-trimethyl-11-((R)-6-oxo-3,6-dihydro-2H-pyran-2-yl)undeca-2,4,8,10-tetraen-1-yl)amino)-3-oxopropyl)disulfaneyl)-ethyl)pent-4-ynamide], the IC50 (usually the concentration that inhibits the measured activity by half) in experiment [1] (setting [5]) turned out to be 0.86 nM; in experiment [2] (setting [6]), 0.17 nM; in experiment [3] (setting [7]) it was 1.09 nM; in experiment [4] (setting [8]) it was 1.86 nM.
Regarding `C/C=C/[C@@H]1O[C@H]([C@H](/C=C/C=C(\C)C[C@@H](C)/C=C(C)\C=C\[C@H]2CC=CC(=O)O2)NC(=O)OC)C[C@@H](O)[C@@H]1C` [16R-Amino-Ratjadone methyl carbamate 19, methyl ((1S,2E,4E,7R,8Z,10E)-1-((2S,4R,5S,6S)-4-hydroxy-5-methyl-6-((E)-prop-1-en-1-yl)tetrahydro-2H-pyran-2-yl)-5,7,9-trimethyl-11-((R)-6-oxo-3,6-dihydro-2H-pyran-2-yl)undeca-2,4,8,10-tetraen-1-yl)carbamate], the negative logarithm of the IC50 (pIC50) (in general, the IC50 on a negative log10 scale, so that one unit is a factor of ten) against CRM1 is 7.90. For the same compound, the IC50 in experiment [4] (setting [8]) turned out to be 2.53 nM.
As to `C#CCCOC(=O)N[C@H](/C=C/C=C(\C)C[C@@H](C)/C=C(C)\C=C\[C@H]1CC=CC(=O)O1)[C@@H]1C[C@@H](O)[C@H](C)[C@H](/C=C/C)O1` [Compound 24, But-3-yn-1-yl ((1R,2E,4E,7R,8Z,10E)-1-((2S,4R,5S,6S)-4-hydroxy-5-methyl-6-((E)-prop-1-en-1-yl)tetrahydro-2H-pyran-2-yl)-5,7,9-trimethyl-11-((R)-6-oxo-3,6-dihydro-2H-pyran-2-yl)undeca-2,4,8,10-tetraen-1-yl)carbamate], the IC50 in experiment [1] (setting [5]) worked out at 1.25 nM; in experiment [2] (setting [6]) it was 0.27 nM; in experiment [3] (setting [7]), 0.45 nM; at CRM1 it was 46.1 nM; in experiment [4] (setting [8]) it was 0.47 nM.
The corresponding values for `C/C=C/[C@@H]1O[C@H](C(=O)/C=C/C=C(\C)C[C@@H](C)/C=C(C)\C=C\[C@H]2CC=CC(=O)O2)CC(=O)[C@@H]1C` [16,19-Dioxo-Ratjadone 10, (R)-6-((R,1E,3Z,7E,9E)-3,5,7-trimethyl-11-((2S,5R,6S)-5-methyl-4-oxo-6-((E)-prop-1-en-1-yl)tetrahydro-2H-pyran-2-yl)-11-oxoundeca-1,3,7,9-tetraen-1-yl)-5,6-dihydro-2H-pyran-2-one] are 9.72 nM, 2.87 nM, 1.59 nM, 17.5 nM and 3.98 nM.
On the same counts, the results for `C#CCCC(=O)N[C@H](/C=C/C=C(\C)C[C@@H](C)/C=C(C)\C=C\[C@H]1CC=CC(=O)O1)[C@@H]1C[C@@H](O)[C@H](C)[C@H](/C=C/C)O1` [Compound 22, N-((1R,2E,4E,7R,8Z,10E)-1-((2S,4R,5S,6S)-4-hydroxy-5-methyl-6-((E)-prop-1-en-1-yl)tetrahydro-2H-pyran-2-yl)-5,7,9-trimethyl-11-((R)-6-oxo-3,6-dihydro-2H-pyran-2-yl)undeca-2,4,8,10-tetraen-1-yl)pent-4-ynamide] are 0.58 nM, 0.4 nM, 0.44 nM, 23.2 nM and 1.05 nM.
For `C/C=C/[C@@H]1O[C@H]([C@@H](/C=C/C=C(\C)C[C@@H](C)/C=C(C)\C=C\[C@H]2CC=CC(=O)O2)NC(=O)OC)C[C@@H](O)[C@@H]1C` [16S-Amino-Ratjadone methyl carbamate 20, methyl ((1R,2E,4E,7R,8Z,10E)-1-((2S,4R,5S,6S)-4-hydroxy-5-methyl-6-((E)-prop-1-en-1-yl)tetrahydro-2H-pyran-2-yl)-5,7,9-trimethyl-11-((R)-6-oxo-3,6-dihydro-2H-pyran-2-yl)undeca-2,4,8,10-tetraen-1-yl)carbamate], the pIC50 at CRM1 was 7.63. In experiment [4] (setting [8]), the 50% inhibitory concentration (IC50) came out at 8.18 nM.
In the case of `C#CCNC1C[C@@H]([C@H](O)/C=C/C=C(\C)C[C@@H](C)/C=C(C)\C=C\[C@H]2CC=CC(=O)O2)O[C@@H](/C=C/C)[C@H]1C` (stereo partly drawn) [N-Propargyl-19-amino-Ratjadone 42, (6R)-6-((1E,3Z,5R,7E,9E,11R)-11-hydroxy-3,5,7-trimethyl-11-((2S,5S,6S)-5-methyl-6-((E)-prop-1-en-1-yl)-4-(prop-2-yn-1-ylamino)tetrahydro-2H-pyran-2-yl)undeca-1,3,7,9-tetraen-1-yl)-5,6-dihydro-2H-pyran-2-one], the concentration for half-maximal inhibition (IC50) in experiment [1] (setting [5]) was 1.12 nM; in experiment [2] (setting [6]), 1.31 nM; in experiment [3] (setting [7]) it was 2.63 nM; on CRM1 it was 18.3 nM; in experiment [4] (setting [8]), 1.23 nM.
As for `C#CCCOC(=O)N[C@H](C(=O)N[C@@H](CCCNC(N)=O)C(=O)Nc1ccc(COC(=O)N[C@H](/C=C/C=C(\C)C[C@@H](C)/C=C(C)\C=C\[C@H]2CC=CC(=O)O2)[C@@H]2C[C@@H](O)[C@H](C)[C@H](/C=C/C)O2)cc1)C(C)C` [But-3-yn-1-yl ((S)-1-(((S)-1-((4-(((((1R,2E,4E,7R,8Z,10E)-1-((2S,4R,5S,6S)-4-hydroxy-5-methyl-6-((E)-prop-1-en-1-yl)tetrahydro-2H-pyran-2-yl)-5,7,9-trimethyl-11-((R)-6-oxo-3,6-dihydro-2H-pyran-2-yl)undeca-2,4,8,10-tetraen-1-yl)carbamoyl)-oxy)methyl)phenyl)amino)-1-oxo-5-ureidopentan-2-yl)amino)-3-methyl-1-oxobutan-2-yl)carbamate], the IC50 in experiment [1] (growth inhibition, 5 days of incubation, MTT assay, read-out: IC50 [nM] A-549) is 25.1 nM; in experiment [2] (growth inhibition, 5 days of incubation, MTT assay, read-out: IC50 [nM] MCF-7) it was 12.5 nM; in experiment [3] (growth inhibition, 5 days of incubation, MTT assay, read-out: IC50 [nM] SK-OV-3) it was 13.6 nM; in experiment [4] (read-out: IC50 [nM] KB-3.1), 9.2 nM.
Turning to `C#CCCOC(=O)N[C@@H](/C=C/C=C(\C)C[C@@H](C)/C=C(C)\C=C\[C@H]1CC=CC(=O)O1)[C@@H]1C[C@@H](O)[C@H](C)[C@H](/C=C/C)O1` [Compound 25, But-3-yn-1-yl ((1S,2E,4E,7R,8Z,10E)-1-((2S,4R,5S,6S)-4-hydroxy-5-methyl-6-((E)-prop-1-en-1-yl)tetrahydro-2H-pyran-2-yl)-5,7,9-trimethyl-11-((R)-6-oxo-3,6-dihydro-2H-pyran-2-yl)undeca-2,4,8,10-tetraen-1-yl)carbamate], the IC50 amounted to 2.45 nM in experiment [1] (setting [5]); 0.62 nM in experiment [2] (setting [6]); 1.2 nM in experiment [3] (setting [7]); 12 nM at CRM1; 1.23 nM in experiment [4] (setting [8]).
`C/C=C/[C@@H]1O[C@H]([C@@H](/C=C/C=C(\C)C[C@@H](C)/C=C(C)\C=C\[C@H]2CC=CC(=O)O2)NC(=O)OCc2ccc(NC(=O)[C@H](CCCNC(N)=O)NC(=O)[C@@H](NC(=O)OC[C@@H]3[C@@H]4CCC#CCC[C@@H]43)C(C)C)cc2)C[C@@H](O)[C@@H]1C` [BCN—O(CO)HN-Val-Cit-PABO(CO)NH-Ratja 31, ((1R,8S,9s)-bicyclo[6.1.0]non-4-yn-9-yl)methyl ((S)-1-(((S)-1-((4-(((((1R,2E,4E,7R,8Z,10E)-1-((2S,4R,5S,6S)-4-hydroxy-5-methyl-6-((E)-prop-1-en-1-yl)tetrahydro-2H-pyran-2-yl)-5,7,9-trimethyl-11-((R)-6-oxo-3,6-dihydro-2H-pyran-2-yl)undeca-2,4,8,10-tetraen-1-yl)carbamoyl)oxy)methyl)phenyl)amino)-1-oxo-5-ureidopentan-2-yl)amino)-3-methyl-1-oxobutan-2-yl)carbamate]: the 50% inhibitory concentration (IC50) in experiment [1] (setting [5]) amounted to 39.5 nM; in experiment [2] (setting [6]) it was 20.2 nM; in experiment [3] (setting [7]), 34.7 nM; in experiment [4] (setting [8]), 25.1 nM. Also, on CRM1, the negative-log IC50 (pIC50) was 6.46.
